In patent US20240279232A1, “USE OF SUBSTITUTED 5-(4-METHYL-6-PHENYL-4H-BENZO[F]IMIDAZO[1,5-A][1,4] DIAZEPIN-3-YL)-1,2,4-O[…] THE TREATMENT OF INFLAMMATORY CONDITIONS” (priority 2021, published 2024):

Tests used:
[1] = tested on: GABAAR on immortalized mouse microglia; experiment: Automated patch clamp, immortalized mouse microglia; type: cell-based; details: 1 mM GABA, mouse cells
[2] = tested on: GABAAR on immortalized human microglia; experiment: Automated patch clamp, immortalized human microglia; type: cell-based; details: 1 mM GABA, human cells
Mouse microglia = experiment: NO production (Griess assay), LPS/IFNγ-activated mouse microglia; type: cell-based; details: dexamethasone 100 nM; GABA 1 μM; MP-IV-010 50 μM; GL-II-33 in the library screen
human KOR = biological target: T1, human KOR (Homo sapiens, UniProt P41145); experiment: BRET recruitment assay (GαoA) in HEK293T cells; type: cell-based; details: for KOR agonism (in words): BRET recruitment assay
T1 construct: expressed in transfected cells; host or cells: HEK293T
Protocol: HEK293 cells were transfected with GαoA-RLuc, Gβ3, Gγ8-GFP2 and human KOR and treated with increasing concentrations of GL-I-30 or full agonist salvinorin A.
The BRET recruitment assays were performed in HEK293T cells according to previously reported procedures with minor modifications. Briefly, the cells were co-transfected overnight with GαoA-RLuc, Gβ3, Gγ8-GFP2 and human KOR receptor at a 1:1:1:1 ratio. The next day, cells were seeded (˜40,000 cells/well) into poly-L-Lysine coated 96-well white clear bottom cell culture plates in DMEM containing 1% dialyzed FBS. 24 hours later, the 96-well plates bottom were covered with white backing (PerkinElmer) and the culture medium was removed. Immediately, the cells were washed with 80 μL/well of assay buffer (1× HBSS, 20 mM HEPES, 1 mg/ml BSA, pH 7.4). Then the cells were treated with 80 μL of drugs in assay buffer for 10 min at room temperature, follow by addition of 20 μL/well of RLuc substrate and incubated for another 10 min. Plates were read in a Mithras LB940 reader for the RLuc Luminescence (400 nm) and GFP2 (515 nm) emission and the ratio of GFP2/RLuc (n=24) was analyzed by non-linear regression using GraphPad Prism 8.

MOR (μ opioid receptor) = biological target: T2, MOR (μ opioid receptor) (Homo sapiens, UniProt P35372); experiment: MOR radioligand binding ([3H]-DAMGO, HEK293 cell homogenates); details: [3H]-DAMGO
T2 construct: expressed in transfected cells; host or cells: HEK293

DOR (δ opioid receptor) = biological target: T3, DOR (δ opioid receptor) (Homo sapiens, UniProt P41143); experiment: DOR radioligand binding ([3H]-DADLE, HEK293 cell homogenates); details: Percent inhibition at 10,000 nM; [3H]-DADLE
T3 construct: expressed in transfected cells; host or cells: HEK293

KOR (κ opioid receptor) = biological target: T4, KOR (κ opioid receptor) (Homo sapiens, UniProt P41145); experiment: KOR radioligand binding ([3H]-U69593, HEK293 cell homogenates); details: [3H]-U69593
T4 construct: expressed in transfected cells; host or cells: HEK293 (stably transfected)

[3] = tested on: BZR (benzodiazepine site of GABAAR); experiment: GABAAR/BZR binding, rat brain homogenate with 3H-flunitrazepam; details: rat brain homogenate, 3H-flunitrazepam
Outline: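 Primary screen at 10,000 nM; where displacement exceeded 50%, Ki came from nonlinear regression of concentration–response data (n=6). Radioligand was 3H-flunitrazepam at roughly Kd on rat brain homogenate, usually 90 min, room temperature, dark, with 10 μM reference compound for nonspecific binding, then filtration and scintillation counting.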

Swiss Webster mice [4] = experiment: Rotarod test; details: 5 mg/kg
Swiss Webster mice [5] = experiment: Formalin test; type: in vivo, mouse; details: orally; GL-IV-03 10 mg/kg; ketoprofen 30 mg/kg
Protocol: Webster mice were treated orally four days in advance with indicated compounds and doses before the injection of 2% formalin in the right hind paw. Mice were evaluated during the first 5 min (phase 1) and after 20 minutes (phase 2) for 5 minutes in 5 seconds intervals Licking and biting the right hind paw during a 5 second interval was noted and combined as total time addressing the injected paw. Data is given as mean with SEM (n =8). ** indicate p<0.01 (unpaired t-test).
The antinociceptive effect of GL-IV-03 was investigated with the formalin test. Paw injections of formalin elicited a biphasic pain response separated in time (1-5 minutes and 20-60 minutes). […] Sensorimotor impairment and sedation were investigated with mice that were trained to balance on a rotating rod over a period of three minutes (rotarod). The amount of time that mice remained balanced on the rod after intraperitoneal (i.p.) and oral (p.o.) treatment with GL-IV-03 and MP-IV-010 is summarized in FIG. 7B-7C. […] The effect was similar to non-steroidal anti-inflammatory drug ketoprofen at 30 mg/kg. Sedation and inhibition of sensorimotor coordination can influence licking and biting pain behaviors, prompting rotarod studies for GL-IV-03 and MP-IV-010. […] In contrast to diazepam, a benzodiazepine with high affinity for the α1β2/3γ2 and other GABAAR subtypes, was sedating at 5 mg/kg.
Formalin test. […]

[6] = Percent inhibition at 10,000 nM

T1 sequence (P41145 whole entry): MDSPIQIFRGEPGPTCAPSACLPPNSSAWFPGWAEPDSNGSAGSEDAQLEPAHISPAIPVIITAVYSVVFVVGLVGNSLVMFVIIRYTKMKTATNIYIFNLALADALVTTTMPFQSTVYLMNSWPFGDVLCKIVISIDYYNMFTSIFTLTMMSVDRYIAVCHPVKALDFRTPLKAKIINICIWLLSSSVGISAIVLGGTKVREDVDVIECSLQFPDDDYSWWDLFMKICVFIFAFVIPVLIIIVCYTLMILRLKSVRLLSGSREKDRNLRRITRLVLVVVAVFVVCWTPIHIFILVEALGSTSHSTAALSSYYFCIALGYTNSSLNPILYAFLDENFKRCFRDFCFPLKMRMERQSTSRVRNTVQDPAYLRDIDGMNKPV
T1 sequence (P09471 2-354 partner limits assumed): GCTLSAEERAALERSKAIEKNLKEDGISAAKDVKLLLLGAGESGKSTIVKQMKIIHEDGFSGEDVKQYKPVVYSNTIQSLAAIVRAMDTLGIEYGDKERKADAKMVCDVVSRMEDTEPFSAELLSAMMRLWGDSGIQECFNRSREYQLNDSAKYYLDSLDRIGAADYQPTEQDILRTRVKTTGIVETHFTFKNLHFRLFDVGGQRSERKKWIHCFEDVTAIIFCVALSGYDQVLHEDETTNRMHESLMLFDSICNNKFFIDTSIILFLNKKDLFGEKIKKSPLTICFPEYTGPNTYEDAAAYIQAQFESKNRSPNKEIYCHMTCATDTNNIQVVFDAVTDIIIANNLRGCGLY
T1 sequence (P16520 whole entry partner): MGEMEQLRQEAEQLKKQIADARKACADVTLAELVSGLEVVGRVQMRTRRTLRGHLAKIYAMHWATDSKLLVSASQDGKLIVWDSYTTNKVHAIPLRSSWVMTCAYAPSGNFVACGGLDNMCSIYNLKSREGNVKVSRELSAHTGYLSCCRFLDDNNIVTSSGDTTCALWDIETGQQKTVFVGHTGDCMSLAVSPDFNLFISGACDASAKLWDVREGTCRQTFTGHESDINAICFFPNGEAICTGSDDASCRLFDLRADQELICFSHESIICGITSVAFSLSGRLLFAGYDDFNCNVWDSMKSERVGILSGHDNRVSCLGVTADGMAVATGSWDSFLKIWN
T1 sequence (Q9UK08 1-67 partner limits assumed): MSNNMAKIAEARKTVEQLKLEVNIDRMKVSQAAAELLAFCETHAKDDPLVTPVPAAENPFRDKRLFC
T2 sequence (P35372 whole entry, species assumed): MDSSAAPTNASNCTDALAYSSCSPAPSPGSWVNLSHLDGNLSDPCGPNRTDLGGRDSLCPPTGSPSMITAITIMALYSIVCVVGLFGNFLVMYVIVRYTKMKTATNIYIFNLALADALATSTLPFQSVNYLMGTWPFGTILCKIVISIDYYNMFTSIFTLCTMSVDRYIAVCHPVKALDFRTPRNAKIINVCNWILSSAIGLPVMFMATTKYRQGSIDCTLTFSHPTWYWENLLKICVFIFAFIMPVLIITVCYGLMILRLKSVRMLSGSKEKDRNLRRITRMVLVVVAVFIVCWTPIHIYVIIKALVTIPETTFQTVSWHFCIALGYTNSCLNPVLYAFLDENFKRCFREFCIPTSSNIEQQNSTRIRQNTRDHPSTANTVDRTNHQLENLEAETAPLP
T4 sequence (P41145 whole entry): as the sequence (P41145 whole entry) above
T3 sequence (P41143 whole entry): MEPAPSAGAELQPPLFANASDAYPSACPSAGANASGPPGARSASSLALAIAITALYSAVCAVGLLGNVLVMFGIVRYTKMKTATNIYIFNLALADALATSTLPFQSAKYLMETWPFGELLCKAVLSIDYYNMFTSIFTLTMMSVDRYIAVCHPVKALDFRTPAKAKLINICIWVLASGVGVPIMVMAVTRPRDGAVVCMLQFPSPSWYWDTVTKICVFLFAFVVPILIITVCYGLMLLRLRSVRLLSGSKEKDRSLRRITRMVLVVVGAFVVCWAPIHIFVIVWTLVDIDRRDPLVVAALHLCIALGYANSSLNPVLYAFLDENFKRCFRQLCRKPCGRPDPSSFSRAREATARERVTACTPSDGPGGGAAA

For `NCCCC(=O)O` [GABA], which maximum current response [1] is on record?
Its maximum current response is 1514 pA.

What about the maximum current response [2] of the same compound?
The maximum current response was 1245 pA.

And the “NO production of activated microglia (in words)” value (Mouse microglia)?
The value was “no effect”.

What does the source list for `C#Cc1ccc2c(c1)C(c1ccccc1F)=NC(C)c1c(C(=O)OC(C)(C)C)ncn1-2` (stereo not shown) [GL-I-30]?
KOR agonism (in words) (human KOR): full KOR agonism; KOR agonism (in words) (human KOR; listed as GL-1-30): full KOR agonist; efficacy in comparison to full agonist salvinorin A (human KOR; BRET, HEK293T cells): 100%; EC50 (human KOR; BRET, HEK293T cells, read-out: EC50, recruitment of GαoA protein to KOR): 32.3 nM; MOR % (MOR (μ opioid receptor); [6]): 54%; Ki (MOR (μ opioid receptor); read-out: MOR affinity Ki): 1850 nM; DOR % (DOR (δ opioid receptor)): 7%; KOR % (KOR (κ opioid receptor); [6]): 95%; Ki (KOR (κ opioid receptor); concentration-dependent, read-out: KOR (Ki)): 27 nM; BZR % [3, 6]: 96%; Ki [3]: 177 nM

Which “sedation (rotarod)” value (Swiss Webster mice [4]) does the source give for `CN1C(=O)CN=C(c2ccccc2)c2cc(Cl)ccc21` [diazepam, reference compound] here?
The value was “sedating”.

Which “antinociceptive effect, formalin test (phase 1 and 2)” value (Swiss Webster mice [5]) does the source give for `CC(C(=O)O)c1cccc(C(=O)c2ccccc2)c1` (stereo not shown) [ketoprofen, reference compound] here?
The value was “similar”.
